Common to all, as to test: NCI tumour cell line growth inhibition, 48 h
For assay [1], the system named is 786-0.
For assay [2], the system named is A549.
The test system of assay [3] is HL-60.
Assay [4] relates to HOP-92.
For assay [5], the system named is Hs-578T.
Assay [6] has as its system IGROV-1.
In assay [7] the test system is K562.
In assay [8] the test system is KM12.
Assay [9] deals with MDA-MB-231.
The subject of assay [10] is MDA-N.
Assay [11] relates to MOLT-4.
Assay [12] has as its system NCI-H522.
For assay [13], the system named is NCI/ADR-RES.
Assay [14] relates to PC-3.
Assay [15] relates to SF-539.
Assay [16] deals with SK-MEL-28.
For assay [17], the system named is SNB-75.
Assay [18] deals with UO-31.
Assay [19] has as its system RXF 393.

Molecules are shown by their SMILES.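 These data come from cells grown in 96-well plates and exposed to compound for 48 hours at five concentrations. Abbreviation: GI50, concentration required for 50% inhibition of growth.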 Activity calls are given as the source filed them. No stated cut-off is given here; in the data, active = GI50 up to about 1.1 µM and inactive = higher.

With `NCCCN1CCN(CCCNc2ccc3ncn4c5ccccc5c(=O)c2c34)CC1`, the GI50 is 1.29 µM (inactive) in [1]; 1.95 µM (inactive) in assay [2]; 0.861 µM (active) in [3]; 1.36 µM (inactive) in assay [4]; 3.16 µM (inactive) in assay [5]; 1.04 µM (active) in [6]. Further, the GI50 is 1.09 µM (active) in assay [7]; 3.29 µM (inactive) in [8]; 0.783 µM (active) in [9]; 1.45 µM (inactive) in [10]; 1.11 µM (active) in [11]; 0.456 µM (active) in [12]. In addition, the GI50 in assay [13] is 13.7 µM (inactive); in assay [14], 1.69 µM (inactive); in [15], 1.42 µM (inactive); in [16], 4.47 µM (inactive); in assay [17], 3.13 µM (inactive); in [18], 5.28 µM (inactive).

Take `CC(=O)NC(CCCN(Cc1ccccc1)C(=O)N(CCCl)N=O)C(=O)NCc1ccccc1` (stereo not given): the GI50 in assay [1] was 2.24 µM (inactive); in assay [2], 16.1 µM (inactive); in assay [3], 8.71 µM (inactive); in assay [4], 36 µM (inactive); in assay [6] it was 44.4 µM (inactive); in assay [7] it was 68.4 µM (inactive). The GI50 in assay [8] is 60.5 µM (inactive); in assay [11], 9.4 µM (inactive); in [12], 57.1 µM (inactive); in assay [19], 21.8 µM (inactive); in assay [15] it was 2.54 µM (inactive); in assay [16], 78.3 µM (inactive). The GI50 in assay [17] was 9.02 µM (inactive); in assay [18] it was 43.4 µM (inactive).

On to `NC(=S)N/N=C(\CC1OC(=O)c2ccccc21)c1ccc(Cl)cc1` (stereo not given), for which the GI50 in assay [1] was 43.4 µM (inactive); in assay [2], 48.2 µM (inactive); in assay [3] it was 98.2 µM (inactive); in [4], 23.1 µM (inactive); in [6], 40.3 µM (inactive); in [7], 84.1 µM (inactive). Moreover, the GI50 was 22 µM (inactive) in assay [8]; 61.5 µM (inactive) in [11]; 20.9 µM (inactive) in assay [12]; 25.1 µM (inactive) in assay [19]; 20.8 µM (inactive) in [15]; 45.8 µM (inactive) in assay [16]. For the same molecule, the GI50 was 49.2 µM (inactive) in assay [17] and 24.9 µM (inactive) in assay [18].

As to `CCOC(=O)c1c(N2CCCC2)nsc1Nc1ccc(F)cc1`, the GI50 was 26.1 µM (inactive) in [1]; 27.9 µM (inactive) in [2]; 20.4 µM (inactive) in assay [3]; 28.7 µM (inactive) in [4]; 40.9 µM (inactive) in [5]; 55 µM (inactive) in assay [6]. The GI50 is 29.8 µM (inactive) in [7]; 42.2 µM (inactive) in [8]; 39.4 µM (inactive) in assay [9]; 34.9 µM (inactive) in assay [10]; 23.9 µM (inactive) in assay [11]; 33.5 µM (inactive) in assay [12]. In addition, the GI50 in [13] is 34 µM (inactive); in assay [14], 20.4 µM (inactive); in assay [19], 13.6 µM (inactive); in assay [15], 64.7 µM (inactive); in assay [16], 54.3 µM (inactive); in assay [18] it was 16 µM (inactive).

In the case of `C=CC1(C)/C(=N\O)C(C)(CC)C(=O)N1O` (stereo not given), the GI50 in [1], in [2], in [3], in [4], in [6] and in [7] was > 100 µM (inactive) each time. The GI50 in assay [8], in [11], in assay [12], in assay [19], in [15] and in assay [16] was > 100 µM (inactive) each time. Besides, the GI50 in [17] and in assay [18] was > 100 µM (inactive) throughout.

For the molecule `CN(C)CC(C)(C)C(=O)/C=C/c1ccccc1`, the GI50 in [1] was 15.4 µM (inactive); in assay [2] it was 28.8 µM (inactive); in [3] it was 5.58 µM (inactive); in assay [4] it was 8.41 µM (inactive); in assay [6] it was 12.9 µM (inactive); in [7] it was 5.13 µM (inactive). Further, the GI50 in assay [8] was 14.1 µM (inactive); in assay [11], 14.4 µM (inactive); in assay [12], 10.3 µM (inactive); in assay [19] it was 11.9 µM (inactive); in [15] it was 16.6 µM (inactive); in [16], 16 µM (inactive). Besides, the values for the GI50 in assay [17] and in assay [18] were 16.1 µM (inactive) and 11 µM (inactive), respectively.

In the case of `COCOCC/C=C/C=O`, the GI50 in assay [1], in assay [2], in [3], in [4], in [6] and in assay [7] was > 100 µM (inactive) throughout. For the same molecule, the GI50 in [8], in assay [11], in assay [12], in assay [19], in assay [15] and in assay [16] was > 100 µM (inactive) each time. Besides, the GI50 in assay [17] and in assay [18] was > 100 µM (inactive) throughout.

With `O=C1/C(=C/c2cccc([N+](=O)[O-])c2)COc2ccccc21`, the GI50 in assay [1] was 1.63 µM (inactive); in assay [2], 41.2 µM (inactive); in assay [3] it was 2.08 µM (inactive); in [4], 19.1 µM (inactive); in [6] it was 7.85 µM (inactive); in assay [7], 1.46 µM (inactive). Besides, the GI50 is 2.5 µM (inactive) in assay [8]; 2.31 µM (inactive) in [11]; 1.67 µM (inactive) in assay [12]; 4.65 µM (inactive) in [19]; 4.42 µM (inactive) in [15]; 2.92 µM (inactive) in [16]. The GI50 in [17] is 13.1 µM (inactive); in [18], 15.2 µM (inactive).

Turning to `CCN(C(=N)C#N)c1ccccc1`, the GI50 in assay [1] is > 41.9 µM (inactive); in assay [2] it was > 100 µM (inactive); in [3], > 46.9 µM (inactive); in [4], > 100 µM (inactive); in [6] it was > 100 µM (inactive); in assay [7], > 75.5 µM (inactive). Also, the GI50 in assay [8] was > 100 µM (inactive); in assay [11], > 100 µM (inactive); in [12], > 100 µM (inactive); in assay [19] it was > 100 µM (inactive); in assay [15] it was 13.6 µM (inactive); in assay [16], > 100 µM (inactive). Moreover, the GI50 in [17] and in assay [18] was > 100 µM (inactive) each time.

Take `COCOc1ccc(C(=O)Oc2cccc3c2OC(C)(C)O3)c(OCOC)c1`: the GI50 in [1] was > 100 µM (inactive); in assay [3], 0.0181 µM (active); in assay [4] it was > 100 µM (inactive); in assay [5], 31.3 µM (inactive); in assay [6] it was > 100 µM (inactive); in [7], 56.4 µM (inactive). In addition, the GI50 in [8] is 11.9 µM (inactive); in assay [9], 15.7 µM (inactive); in assay [10], > 100 µM (inactive); in assay [11], 53.2 µM (inactive); in assay [13], > 100 µM (inactive); in [19], 78.2 µM (inactive). Also, the GI50 in assay [15] was 37.7 µM (inactive); in assay [16], 9.66 µM (inactive); in assay [17], 74.5 µM (inactive); in [18], 71.1 µM (inactive).

For the origin of these results see ChEMBL document CHEMBL1201862, “PubChem BioAssay data set” (2004).
